Experiment [1] concerns JAK2, TYK2/p-STAT4 (Tyr693) activated by IL-12 in NK-92 cell line. As to the kind of experiment: IL-12-JAK2, TYK2/p-STAT4 (Tyr693) inhibition IC50 cellular assay. The experiment is classed as cell-based. The note with it: for Selectivity fold (TYK2/JAK2): Cellular assay, pSTAT5/GM-CSF IC50 vs pSTAT4/IL-12 IC50; for IC50: NK92, Cellular assay, read-out: pSTAT4/IL-12 IC50. The gist of the method:
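NK-92 cells were starved overnight without IL-2 and preincubated 1 h at 37° C with compound (8 doses, 10000–0.61 nM, 4-fold, 0.2% DMSO). They were then stimulated with IL-12 (40 ng/ml final) for 30 min. Lysate p-STAT4 (Tyr693) was read by AlphaLISA SureFire; IC50 from four-parameter logistic fit.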

The subject of the next experiment is pSTAT5/GM-CSF. The experiment is described as follows: pSTAT5/GM-CSF cellular assay (JAK2 selectivity). In kind it is cell-based. The settings on record: for Selectivity fold (TYK2/JAK2): pSTAT5/GM-CSF IC50 over pSTAT4/IL-12 IC50.
The target of experiment [2] is T1, TYK2-JH2 (aa 575-869, in-house) protein (Homo sapiens, UniProt P29597).
T1 construct: TYK2-JH2 (aa 575-869, in-house) protein; made in house
T1 sequence (P29597 575-869): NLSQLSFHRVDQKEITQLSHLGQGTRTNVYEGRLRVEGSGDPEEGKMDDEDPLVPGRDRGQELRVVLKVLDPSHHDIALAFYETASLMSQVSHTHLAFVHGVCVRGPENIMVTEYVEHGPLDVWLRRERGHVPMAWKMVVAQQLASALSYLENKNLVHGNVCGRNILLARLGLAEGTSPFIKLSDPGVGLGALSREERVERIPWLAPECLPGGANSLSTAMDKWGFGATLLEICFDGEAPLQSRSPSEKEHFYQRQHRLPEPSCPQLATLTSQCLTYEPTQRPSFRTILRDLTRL
As to the kind of experiment: TYK2-JH2 biochemical assay (HTRF probe displacement). The experiment is classed as binding. The note with it: Biochemical assay; read-out: TYK2-JH2 IC50. The procedure, abridged:
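Recombinant TYK2-JH2 (0.2 nM) was pre-incubated 0.5 h at room temperature with compounds (10 doses, 5-fold dilution; 500× DMSO stocks from 500 uM) in 20 mM HEPES pH 7.5, 10 mM MgCl2, 0.005% BSA, 2 mM DTT, 0.015% Brij-35. Probe displacement was read by HTRF (ex337, em620/665 nm); IC50 from four-parameter logistic fit.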
(TR-FRET usually uses a lanthanide donor and a delayed reading to cut background.)

Where only a bound is given, the exact number is not on record here.

Consider `COCCOc1ccc(-c2cnc(NC(C)=O)cc2Nc2cc(OC)cc(S(C)(=O)=O)n2)nc1` [Example D5, N-(4′-((4-methoxy-6-(methylsulfonyl)pyridin-2-yl)amino)-5-(2-methoxyethoxy)-[2,3′-bipyridin]-6′-yl)acetamide], for which the “Selectivity fold (TYK2/JAK2)” value in experiment [1] is listed as over 10101 fold. Further, the IC50 was 0.99 nM in experiment [1], over 10000 nM in the experiment with pSTAT5/GM-CSF and 0.036 nM in experiment [2].

Regarding `CC(=O)Nc1cc(Nc2cc(OC(C)C)cc(S(C)(=O)=O)n2)c(-c2cc(C)n(C)n2)cn1` [Example N2, N-(5-(1,5-dimethyl-1H-pyrazol-3-yl)-4-((4-isopropoxy-6-(methylsulfonyl)pyridin-2-yl)amino)pyridin-2-yl)acetamide], the IC50 was 0.641 nM in experiment [1], over 10000 nM with pSTAT5/GM-CSF and 0.021 nM in experiment [2]. Moreover, in the experiment on pSTAT5/GM-CSF, the “Selectivity fold (TYK2/JAK2)” value was over 15600 fold.

Consider `CC(=O)Nc1cc(Nc2cc(C)cc(S(C)(=O)=O)n2)c(-c2ccc(O[C@H]3CCOC3)cn2)cn1` [Example B21, (S)-N-(4′-((4-methyl-6-(methylsulfonyl)pyridin-2-yl)amino)-5-((tetrahydrofuran-3-yl)oxy)-[2,3′-bipyridin]-6′-yl)acetamide], for which the “Selectivity fold (TYK2/JAK2)” value in experiment [1] amounted to 5620 fold. In addition, the IC50 is 0.443 nM in experiment [1], 2490 nM in the experiment with pSTAT5/GM-CSF and 0.047 nM in experiment [2].

With `CC(=O)Nc1cc(Nc2cc(OC3CC3)cc(S(C)(=O)=O)c2)c(-c2ccc(C(C)(C)O)cn2)cn1` [Example H23, N-(4′-((3-cyclopropoxy-5-(methylsulfonyl)phenyl)amino)-5-(2-hydroxypropan-2-yl)-[2,3′-bipyridin]-6′-yl)acetamide], in experiment [1], the “Selectivity fold (TYK2/JAK2)” value was over 1754 fold. The results for the IC50 (in experiment [1]; in the experiment with pSTAT5/GM-CSF; in experiment [2]) were 5.7 nM, over 10000 nM and 0.034 nM, respectively.

Turning to `COc1ccc(-c2cnc(NC(C)=O)cc2Nc2cc(N3C[C@@H](C)O[C@@H](C)C3)cc(S(C)(=O)=O)n2)nn1` [Example A27, N-(4-((4-((2S,6R)-2,6-dimethylmorpholino)-6-(methylsulfonyl)pyridin-2-yl)amino)-5-(6-methoxypyridazin-3-yl)pyridin-2-yl)acetamide], the “Selectivity fold (TYK2/JAK2)” value in experiment [1] is reported as over 4761 fold. For the same compound, the IC50 in experiment [1] was 2.1 nM; in the experiment with pSTAT5/GM-CSF, over 10000 nM; in experiment [2], 0.034 nM.

Regarding `CC(=O)Nc1cc(Nc2cc(OC(C)C)cc(S(C)(=O)=O)n2)c(-c2ccc3c(n2)OCO3)cn1` [Example Q2, N-(5-([1,3]dioxolo[4,5-b]pyridin-5-yl)-4-((4-isopropoxy-6-(methylsulfonyl)pyridin-2-yl)amino)pyridin-2-yl)acetamide], the IC50 in experiment [1] was 1.7 nM; in the experiment on pSTAT5/GM-CSF it was over 10000 nM; in experiment [2] it was 0.021 nM. In addition, in the experiment with pSTAT5/GM-CSF, the “Selectivity fold (TYK2/JAK2)” value is listed as over 5882 fold.

As to `CC(=O)Nc1cc(Nc2cccc(S(C)(=O)=O)c2)c(-c2ccc(C(F)(F)F)cn2)cn1` [Example F2, N-(4′-((3-(methylsulfonyl)phenyl)amino)-5-(trifluoromethyl)-[2,3′-bipyridin]-6′-yl)acetamide], the “Selectivity fold (TYK2/JAK2)” value in experiment [1] is recorded as over 451 fold. The values for the IC50 (in experiment [1]; in the experiment with pSTAT5/GM-CSF; in experiment [2]) were 22.1 nM, over 10000 nM and 0.051 nM, respectively.

As for `CC(=O)Nc1cc(Nc2cc(-c3ccccc3)cc(S(C)(=O)=O)n2)c(-c2ccn(C)n2)cn1` [Example J38, N-(5-(1-methyl-1H-pyrazol-3-yl)-4-((6-(methylsulfonyl)-4-phenylpyridin-2-yl)amino)pyridin-2-yl)acetamide], the IC50 in experiment [1] is 1.98 nM; with pSTAT5/GM-CSF, over 10000 nM; in experiment [2] it was 0.024 nM. Also, the “Selectivity fold (TYK2/JAK2)” value with pSTAT5/GM-CSF is on record as over 5050 fold.

For `COc1cc(Nc2cc(NC(C)=O)ncc2-c2ccc(C(F)(F)F)cn2)nc(S(C)(=O)=O)c1` [Example F20, N-(4′-((4-methoxy-6-(methylsulfonyl)pyridin-2-yl)amino)-5-(trifluoromethyl)-[2,3′-bipyridin]-6′-yl)acetamide], in experiment [1], the “Selectivity fold (TYK2/JAK2)” value is given as over 6896 fold. Moreover, the figures for the IC50 (in experiment [1]; with pSTAT5/GM-CSF; in experiment [2]) were 1.45 nM, over 10000 nM and 0.031 nM, respectively.

In the case of `CC(=O)Nc1cc(Nc2cc(S(C)(=O)=O)ccc2C)c(-c2ccc(C(C)(C)O)cn2)cn1` [Example H35, N-(5-(2-hydroxypropan-2-yl)-4′-((2-methyl-5-(methylsulfonyl)phenyl)amino)-[2,3′-bipyridin]-6′-yl)acetamide], in experiment [1], the “Selectivity fold (TYK2/JAK2)” value was over 3154 fold. For the same compound, the IC50 in experiment [1] is 3.17 nM; with pSTAT5/GM-CSF, over 10000 nM; in experiment [2] it was 0.028 nM.

In the case of `CC(=O)Nc1cc(Nc2cc(C(F)F)cc(S(C)(=O)=O)c2)c(-c2ccc(C(C)(C)O)cn2)cn1` [Example H25, N-(4′-((3-(difluoromethyl)-5-(methylsulfonyl)phenyl)amino)-5-(2-hydroxypropan-2-yl)-[2,3′-bipyridin]-6′-yl)acetamide], in experiment [1], the “Selectivity fold (TYK2/JAK2)” value is recorded as over 1328 fold. Moreover, the IC50 in experiment [1] was 7.53 nM; with pSTAT5/GM-CSF it was over 10000 nM; in experiment [2], 0.038 nM.

As for `CC(=O)Nc1cc(Nc2cc(C)cc(S(C)(=O)=O)n2)c(-c2cc3c(cn2)OCCO3)cn1` [Example Q18, N-(5-(2,3-dihydro-[1,4]dioxino[2,3-c]pyridin-7-yl)-4-((4-methyl-6-(methylsulfonyl)pyridin-2-yl)amino)pyridin-2-yl)acetamide], the IC50 in experiment [1] was 0.91 nM; in the experiment with pSTAT5/GM-CSF it was over 10000 nM; in experiment [2], 0.023 nM. The “Selectivity fold (TYK2/JAK2)” value with pSTAT5/GM-CSF was over 10989 fold.

`CC(=O)Nc1cc(Nc2cc(C)cc(S(C)(=O)=O)n2)c(-c2ccc(F)cn2)cn1` [Example F17, N-(5-fluoro-4′-((4-methyl-6-(methylsulfonyl)pyridin-2-yl)amino)-[2,3′-bipyridin]-6′-yl)acetamide]: the “Selectivity fold (TYK2/JAK2)” value in experiment [1] is listed as over 8000 fold. Also, the IC50 in experiment [1] was 1.25 nM; with pSTAT5/GM-CSF, over 10000 nM; in experiment [2], 0.054 nM.

For the compound `CO[C@H](C)COc1cc(Nc2cc(NC(C)=O)ncc2-c2ccn(C)n2)nc(S(C)(=O)=O)c1` [Example J14, (R)-N-(4-((4-(2-methoxypropoxy)-6-(methylsulfonyl)pyridin-2-yl)amino)-5-(1-methyl-1H-pyrazol-3-yl)pyridin-2-yl)acetamide], the values for the IC50 (in experiment [1]; in the experiment on pSTAT5/GM-CSF; in experiment [2]) were 0.792 nM, over 10000 nM and 0.033 nM, respectively. In addition, in the experiment on pSTAT5/GM-CSF, the “Selectivity fold (TYK2/JAK2)” value is listed as over 12626 fold.

In the case of `CC(=O)Nc1cc(Nc2cc(C)cc(S(C)(=O)=O)n2)c(-c2ccc(OC(C)C)nn2)cn1` [Example A29, N-(5-(6-isopropoxypyridazin-3-yl)-4-((4-methyl-6-(methylsulfonyl)pyridin-2-yl)amino)pyridin-2-yl)acetamide], the “Selectivity fold (TYK2/JAK2)” value in experiment [1] is over 22123 fold. Also, the values for the IC50 (in experiment [1]; in the experiment with pSTAT5/GM-CSF; in experiment [2]) were 0.452 nM, over 10000 nM and 0.042 nM, respectively.

For the compound `CC(=O)Nc1cc(Nc2cc(O[C@H]3C[C@H](O)C3)cc(S(C)(=O)=O)n2)c(-c2ccc(C(C)(C)O)cn2)cn1` [Example H10], the “Selectivity fold (TYK2/JAK2)” value in experiment [1] is recorded as over 607 fold. Further, the IC50 was 16.4 nM in experiment [1], over 10000 nM with pSTAT5/GM-CSF and 0.017 nM in experiment [2].

In the case of `CCn1ccc(-c2cnc(NC(C)=O)cc2Nc2cc(OCCO)cc(S(C)(=O)=O)n2)n1` [Example M19, N-(5-(1-ethyl-1H-pyrazol-3-yl)-4-((4-(2-hydroxyethoxy)-6-(methylsulfonyl)pyridin-2-yl)amino)pyridin-2-yl)acetamide], the IC50 in experiment [1] is 2.55 nM; with pSTAT5/GM-CSF, over 10000 nM; in experiment [2] it was 0.032 nM. For the same compound, the “Selectivity fold (TYK2/JAK2)” value with pSTAT5/GM-CSF is recorded as over 3921 fold.

On to `CC(=O)Nc1cc(Nc2cc(OCC3CC3)cc(S(C)(=O)=O)n2)c(-c2ccc(N3C[C@@H](C)O[C@@H](C)C3)cn2)cn1` [Example C5, N-(4′-((4-(cyclopropylmethoxy)-6-(methylsulfonyl)pyridin-2-yl)amino)-5-((cis)-2,6-dimethylmorpholino)-[2,3′-bipyridin]-6′-yl)acetamide], for which, in experiment [1], the “Selectivity fold (TYK2/JAK2)” value is listed as over 456 fold. The IC50 in experiment [1] is 21.9 nM; in the experiment with pSTAT5/GM-CSF, over 10000 nM; in experiment [2], 0.032 nM.

Regarding `COCCOc1cc(Nc2cc(NC(C)=O)ncc2-c2ccn(C)n2)cc(S(C)(=O)=O)c1` [Example J35, N-(4-((3-(2-methoxyethoxy)-5-(methylsulfonyl)phenyl)amino)-5-(1-methyl-1H-pyrazol-3-yl)pyridin-2-yl)acetamide], the IC50 is 8.13 nM in experiment [1], over 10000 nM in the experiment on pSTAT5/GM-CSF and 0.036 nM in experiment [2]. Besides, the “Selectivity fold (TYK2/JAK2)” value with pSTAT5/GM-CSF is listed as over 1230 fold.

Turning to `[2H]C([2H])([2H])Oc1cc(Nc2cc(NC(C)=O)ncc2-c2ccc(F)cn2)nc(S(C)(=O)=O)c1` [Example F24, N-(5-fluoro-4′-((4-(methoxy-d3)-6-(methylsulfonyl)pyridine-2-yl)amino)-[2,3′-bipyridin]-6′-yl)acetamide], in experiment [1], the “Selectivity fold (TYK2/JAK2)” value is over 12195 fold. Also, the figures for the IC50 (in experiment [1]; in the experiment on pSTAT5/GM-CSF; in experiment [2]) were 0.82 nM, over 10000 nM and 0.033 nM, respectively.

Values taken from patent US20240043435A1, “TYK-2 INHIBITOR” (BEIGENE, LTD., priority 2020, published 2024).
